{"source": "patent US20220296560A1", "about": "“PHARMACEUTICAL COMPOSITION FOR ORAL ADMINISTRATION IN POWDER FORMULATION CONTAINING ANTIVIRAL AGENT” (DAE HWA PHARMA. CO., LTD., priority 2019, published 2022)", "origin": "cited, not measured here", "conditions": "in vivo", "note": "Like-named read-outs stand apart in the source and are kept apart here.", "data": [{"smiles": "CC(=O)N[C@H]1[C@H]([C@H](O)[C@H](O)CO)OC(C(=O)O)=C[C@@H]1N=C(N)N", "note": "[zanamivir, 5-(acetylamino)-4-{[amino(imino)methyl]amino}-2,6-anhydro-3,4,5-trideoxy-D-glycero-D-galacto-non-2-enonic acid]", "values": [{"measurement": "bioavailability", "setting": "inhaled or intranasal", "result": "4-17%"}, {"measurement": "bioavailability", "setting": "po", "result": "about 2%"}]}]}
